The record followed here is ChEMBL document CHEMBL4002634, “Benzoflavones as cholesterol esterase inhibitors: Synthesis, biological evaluation and docking studies” (Bioorg Med Chem Lett, 2017).

Experiment [1] addresses T1, Carboxylic ester hydrolase (Sus scrofa) (UniProt A0A286ZKB1).
T1 sequence (whole entry): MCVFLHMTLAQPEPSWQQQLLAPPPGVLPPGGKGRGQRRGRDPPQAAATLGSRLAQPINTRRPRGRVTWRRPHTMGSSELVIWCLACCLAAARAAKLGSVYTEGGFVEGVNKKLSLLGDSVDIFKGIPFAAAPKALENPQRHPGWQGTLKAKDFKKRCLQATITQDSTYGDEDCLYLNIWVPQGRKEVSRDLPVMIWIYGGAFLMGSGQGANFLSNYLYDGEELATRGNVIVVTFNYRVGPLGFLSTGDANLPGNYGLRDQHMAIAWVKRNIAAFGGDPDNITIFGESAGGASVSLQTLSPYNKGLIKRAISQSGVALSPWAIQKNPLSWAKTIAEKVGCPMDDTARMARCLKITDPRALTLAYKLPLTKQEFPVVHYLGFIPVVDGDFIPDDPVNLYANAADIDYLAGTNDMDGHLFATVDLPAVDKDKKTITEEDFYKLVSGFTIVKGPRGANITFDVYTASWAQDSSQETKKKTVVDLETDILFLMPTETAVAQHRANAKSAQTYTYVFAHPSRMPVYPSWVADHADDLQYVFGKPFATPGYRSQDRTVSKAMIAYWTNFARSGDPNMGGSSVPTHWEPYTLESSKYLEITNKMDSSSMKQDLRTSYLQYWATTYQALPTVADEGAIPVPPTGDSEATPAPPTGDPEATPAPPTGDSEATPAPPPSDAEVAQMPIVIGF
Put plainly: Inhibition of porcine cholesterol esterase at 50 nM using para-nitrophenyl butyrate as substrate after 5 mins in presence of sodium taurocholate by spectrophotometric method relative to control.

The target of experiment [2] is T1, Carboxylic ester hydrolase (Sus scrofa). Put plainly: Inhibition of porcine cholesterol esterase at 25 nM using para-nitrophenyl butyrate as substrate after 5 mins in presence of sodium taurocholate by spectrophotometric method relative to control.
In experiment [3] the target is T2, Carboxylic ester hydrolase (Sus scrofa, UniProt A0A286ZKB1).
T2 sequence (A0A286ZKB1 whole entry): T1 sequence (whole entry)
Kind of experiment: Inhibition of porcine cholesterol esterase using para-nitrophenyl butyrate as substrate after 5 mins in presence of sodium taurocholate by spectrophotometric method. Conditions: for pIC50: read-out: IC50; call rule not given here.

Experiment [4] deals with T1, Carboxylic ester hydrolase (Sus scrofa). Put plainly: Inhibition of porcine cholesterol esterase at 5 nM using para-nitrophenyl butyrate as substrate after 5 mins in presence of sodium taurocholate by spectrophotometric method relative to control.
Experiment [5] has the same target. Put plainly: Inhibition of porcine cholesterol esterase at 1 nM using para-nitrophenyl butyrate as substrate after 5 mins in presence of sodium taurocholate by spectrophotometric method relative to control.
The target is the same in experiment [6]. Kind of experiment: Inhibition of porcine cholesterol esterase at 10 nM using para-nitrophenyl butyrate as substrate after 5 mins in presence of sodium taurocholate by spectrophotometric method relative to control.

pIC50: −log10 of the molar value.

For `O=c1cc(-c2cccc(Br)c2)oc2c1ccc1ccccc12`, the inhibition in experiment [1] was determined as 78%; in experiment [2], 76%; in experiment [4], 57%; in experiment [5], 43%; in experiment [6], 73%. Besides, the pIC50 in experiment [3] is 7.58.
`O=c1cc(-c2ccc(F)cc2)oc2c1ccc1ccccc12`: the inhibition in experiment [1] amounted to 79%; in experiment [2], 75%; in experiment [4], 62%; in experiment [5], 46%; in experiment [6], 73%. In addition, the pIC50 in experiment [3] was 7.70.
On to `O=c1cc(-c2ccc(I)cc2)oc2c1ccc1ccccc12`, for which the inhibition stood at 75% in experiment [1]; 73% in experiment [2]; 53% in experiment [4]; 38% in experiment [5]; 71% in experiment [6]. Moreover, in experiment [3], the negative logarithm of the IC50 (pIC50) was 7.47.
`O=c1cc(-c2ccccc2I)oc2c1ccc1ccccc12`: the inhibition amounted to 80% in experiment [1]; 79% in experiment [2]; 64% in experiment [4]; 46% in experiment [5]; 78% in experiment [6]. In experiment [3], the pIC50 was 7.79.
In the case of `O=c1cc(-c2cccc(OC(F)(F)F)c2)oc2c1ccc1ccccc12`, the inhibition came to 44% in experiment [1]; 39% in experiment [2]; 24% in experiment [4]; 17% in experiment [5]; 32% in experiment [6]. For the same compound, the IC50 entry in experiment [3] is “Not Active”.
For `O=c1cc(-c2cccc(C(F)(F)F)c2)oc2c1ccc1ccccc12`, the inhibition in experiment [1] came to 57%; in experiment [2] it was 47%; in experiment [4], 30%; in experiment [5] it was 26%; in experiment [6], 34%. Moreover, the IC50 result in experiment [3] is listed as “Not Active”.
As to `O=c1cc(-c2ccc([N+](=O)[O-])cc2)oc2c1ccc1ccccc12`, the inhibition came out at 70% in experiment [1]; 69% in experiment [2]; 47% in experiment [4]; 35% in experiment [5]; 68% in experiment [6]. The pIC50 in experiment [3] is 7.43.
Turning to `O=c1cc(-c2ccc(F)c(C(F)(F)F)c2)oc2c1ccc1ccccc12`, the inhibition is 63% in experiment [1]; 55% in experiment [2]; 34% in experiment [4]; 21% in experiment [5]; 43% in experiment [6]. The pIC50 in experiment [3] was 7.37.
For the compound `O=c1cc(-c2cccc([N+](=O)[O-])c2)oc2c1ccc1ccccc12`, the inhibition is 78% in experiment [1]; 75% in experiment [2]; 51% in experiment [4]; 36% in experiment [5]; 71% in experiment [6]. Also, the pIC50 in experiment [3] is 7.60.
`O=c1cc(-c2cccc(F)c2)oc2c1ccc1ccccc12`: the inhibition in experiment [1] worked out at 87%; in experiment [2] it was 83%; in experiment [4], 64%; in experiment [5] it was 50%; in experiment [6], 79%. Moreover, the pIC50 in experiment [3] was 8.28.
Regarding `O=c1cc(-c2ccc(F)cc2F)oc2c1ccc1ccccc12`, the inhibition is 97% in experiment [1]; 91% in experiment [2]; 66% in experiment [4]; 51% in experiment [5]; 80% in experiment [6]. Further, the pIC50 in experiment [3] was 8.84.
Take `O=c1cc(-c2c(F)cccc2F)oc2c1ccc1ccccc12`: the inhibition in experiment [1] is 92%; in experiment [2], 88%; in experiment [4], 71%; in experiment [5] it was 54%; in experiment [6] it was 83%. Besides, the pIC50 in experiment [3] was 8.70.
Take `O=c1cc(-c2cccc(Cl)c2Cl)oc2c1ccc1ccccc12`: the inhibition in experiment [1] is 84%; in experiment [2], 82%; in experiment [4] it was 64%; in experiment [5], 50%; in experiment [6], 78%. Further, the pIC50 in experiment [3] is 7.96.
Consider `COc1ccc(-c2cc(=O)c3ccc4ccccc4c3o2)cc1OC`, for which the inhibition in experiment [1] was determined as 25%; in experiment [2], 23%; in experiment [4] it was 14%; in experiment [5], 5%; in experiment [6] it was 20%. Further, the IC50 entry in experiment [3] was “Not Active”.
Consider `COc1ccc(-c2cc(=O)c3ccc4ccccc4c3o2)c(OC)c1`, for which the inhibition in experiment [1] is 28%; in experiment [2] it was 25%; in experiment [4], 12%; in experiment [5], 6%; in experiment [6] it was 21%. Also, in experiment [3], the IC50 entry is “Not Active”.
`CN(C)c1ccc(-c2cc(=O)c3ccc4ccccc4c3o2)cc1`: the inhibition is 23% in experiment [1]; 21% in experiment [2]; 12% in experiment [4]; 9% in experiment [5]; 18% in experiment [6]. The IC50 result in experiment [3] is listed as “Not Active”.
As for `O=c1cc(-c2cc(F)ccc2F)oc2c1ccc1ccccc12`, the inhibition in experiment [1] turned out to be 86%; in experiment [2] it was 84%; in experiment [4] it was 65%; in experiment [5], 49%; in experiment [6], 79%. In addition, the pIC50 in experiment [3] was 8.17.
With `Cc1ccc(-c2cc(=O)c3ccc4ccccc4c3o2)cc1`, the inhibition came out at 34% in experiment [1]; 31% in experiment [2]; 18% in experiment [4]; 14% in experiment [5]; 24% in experiment [6]. For the same compound, in experiment [3], the IC50 entry is given as “Not Active”.
In the case of `O=c1cc(-c2ccc(F)c(F)c2)oc2c1ccc1ccccc12`, the inhibition is 81% in experiment [1]; 79% in experiment [2]; 68% in experiment [4]; 48% in experiment [5]; 76% in experiment [6]. Moreover, the negative logarithm of the IC50 (pIC50) in experiment [3] was 7.85.
As to `O=c1cc(-c2ccc(C(F)(F)F)cc2F)oc2c1ccc1ccccc12`, the inhibition in experiment [1] was found to be 67%; in experiment [2], 62%; in experiment [4] it was 43%; in experiment [5] it was 33%; in experiment [6] it was 51%. The pIC50 in experiment [3] is 7.41.
Regarding `O=c1cc(-c2ccccc2F)oc2c1ccc1ccccc12`, the inhibition in experiment [1] was found to be 89%; in experiment [2], 84%; in experiment [4] it was 65%; in experiment [5], 50%; in experiment [6], 81%. Besides, the pIC50 in experiment [3] was 8.49.
As to `O=c1cc(-c2ccc(OC(F)(F)F)cc2)oc2c1ccc1ccccc12`, the inhibition in experiment [1] was 46%; in experiment [2], 42%; in experiment [4], 26%; in experiment [5], 20%; in experiment [6] it was 35%. In addition, in experiment [3], the IC50 result is reported as “Not Active”.
As for `O=c1cc(-c2ccc(CCl)cc2)oc2c1ccc1ccccc12`, the inhibition in experiment [1] came out at 66%; in experiment [2] it was 60%; in experiment [4], 43%; in experiment [5], 32%; in experiment [6], 48%. Also, the pIC50 in experiment [3] was 7.41.
With `O=c1cc(-c2cc(C(F)(F)F)cc(C(F)(F)F)c2)oc2c1ccc1ccccc12`, the inhibition in experiment [1] turned out to be 54%; in experiment [2], 42%; in experiment [4] it was 28%; in experiment [5] it was 21%; in experiment [6], 34%. Also, the IC50 result in experiment [3] was “Not Active”.

One may read the inhibition as how much of the control response was suppressed. In general, pIC50 refers to the IC50 on a negative log10 scale, so that one unit is a factor of ten.
